Assay results from patent US20260285924A1, “PEPTIDE THERAPEUTICS” (priority 2023, published 2026).

Assays:
Assay type in all cases: cell-based, human
A375-WT [1] = experiment: Pan-Cancer PepTile/PiTile fitness screen (lentiviral 40-mer peptide library, NGS abundance); design: key: enrichment of each peptide's NGS abundance, early day vs Day 14; settings: Pan-Cancer library, peptide enrichment day 14 vs day 0
Text: FIGS. 13A-13D show Pan-Cancer PiTile Workflow. (A) The Pan-Cancer peptide library is composed of 1081 proteins tiled into 40-mer peptides at every 6 amino acids of the parental protein. The DNA-encoded library is cloned into lentiviral vectors and packaged into lentivirus. (B) A375 cell line was transduced with the Pan-Cancer PiTile library. Genomic DNA was then harvested at Day2 and Day 14 post-transduction and cell populations abundance expressing the different peptides were quantified using Next-Generation Sequencing (NGS). Peptide fitness score was then calculated by the abundance of each peptide at Day2 versus Day 14. Then the fitness signal is mapped over the original amino acid positions of the derived protein. (C) Coverage of the plasmid Pan-Cancer library and peptide-amplicons from Day2 and Day 14 replicated was determined by NGS. (D) Dot plot of the experimental result obtain from screening the Pan-Cancer library in A375 cell line.
(§1) A peptide tilling screen was performed in A375 similarly to a screen done in MDA-MB-231 (FIG. 1) but with a different lentiviral library. The library (Pan-Cancer library) is composed of 1020 genes tiled every 6 amino acids into 40-mer amino acid long peptides. The gene selection was based on their implication in oncogenesis either being as oncogenes or tumor suppressors. The list was built using recent literature that identified new cancer drivers as well as databases such as Uniprot keywords (KW-0656: Proto-oncogene, KW-0043: Tumor suppressor), and Gene Ontology terms (GO1900117: Apoptosis, GO1901979: Cell cycle checkpoint) (FIG. 2). Aside from Human genes, a list of viral genes was also included (KW-1121: Modulation of host cell cycle by virus) that play roles in high jacking cell cycle progression and thus in oncogenesis (FIG. 2).
(§2) The model of study is melanoma, and this disease is stratified into 4 molecular subtypes, BRAF mutants, NRAS mutants, KIT amplification, NF1 mutations (FIG. 3A). The most prominent mutations found in patient affected with metastatic melanomas are BRAF^V600E and NRAS^Q61K (FIG. 3B). RAS play a key role in oncogenesis and resistance to treatments. Indeed, RAS activating mutations is found in ~20% of all human cancers and secondary NRAS mutation leads to acquired resistance to BRAF targeted therapy such as vemurafenib. Thus, the screen was performed in an A375 cell line model which derived from human BRAF^V600E melanoma as well as an engineered A375 transduced with HA-NRAS^Q61K (FIG. 4A, B). Both cell lines grow at a similar rate but the A375-NRAS^Q61K display more than 10-fold resistance to vemurafenib treatment compared to parental A375 (FIG. 4C, D).
(§3) These cells were transduced with the Pan-Cancer library at a low multiplicity of infection (MOI=0.1-0.3). Then, genomic DNA was extracted at day 0 and day 14 post-transduction to quantify the abundance of peptide for each temporal conditions using Next-generation sequencing. Each experimental replicates were deep sequenced with at least 150 million reads and show a coverage between 82-90% of the initial Pan-Cancer Peptide library (FIG. 5). Then, for each individual peptides a cellular fitness score was calculated based on their enrichment between day 0 and day 14. 8090 peptides negatively affecting growth of A375-WT were identified and 8153 peptides for the A375-NRAS^Q61K cell line (FIG. 6). […] Those common hits are found to be tiles from ~100 genes of the Pan-Cancer gene list and show a substantial biological function clustering.
We built a DNA-encoded peptide library composed of all known Human oncogenes and Tumor Suppressors that we fragmented in 40 amino acid long peptides, the Pan-Cancer library. Using lentiviral expression system, we transduced the Pan-Cancer library in A375 cell line. After 14 days of growth, the frequency of each peptide is measured by NGS and this reveal which peptides affect cell fitness. […]

A375-NRAS^Q61K = experiment: Pan-Cancer PepTile fitness screen (lentiviral 40-mer peptide library, NGS abundance); settings: peptide enrichment day 14 vs day 0
Experimental: as §1, §2, §3

A375-WT [2] = experiment: Validation assay: cell growth (CCK8, 48 hours after plating) of cells transduced with single peptide tiles; settings: peptide overexpression
Experimental: FIGS. 9A-9C. (A) Fitness screen validation assay workflow. (B) Validation assay results (C) Fitness screen results.
(§4) FIGS. 14A-14E show PiTiles derived from DNA-binding domains of MYC and SOX17 inhibit transcriptional program. (A) Experimental workflow of A375 cell line individually transduced with lentivirus expressing GFP_147, MYC_384 or SOX17_96. 5 days post-transductions, RNA was harvested for RNA sequencing. Additionally, cells were plated for a 48-hour growth assay. (B) Cell growth of A375 cell line expressing GFP_147 (control), MYC_384 and SOX17_96. […] Red bar=FDR<0.05. We observe a negative peak in bHLHzip domain of MYC as well as HMG box domain of SOX17. Both domains mediated binding to DNA. (D) Principal Component Analysis of RNA-sequencing for both biological replicates of GFP_147, MYC_384 and SOX17_96 expressing cell lines. (E) A375 RNAseq data was analyzed using Gene Set Enrichment Analysis. For MYC_384 versus GFP_147 over ODONNEL_TARGET_OF_MYC_and_TFRC. For SOX17_96 versus GFP_147 over PRANMOOJAGO_SOX4.
All those selected hits mapped to a known protein domain with known roles in protein-protein interaction or protein-DNA interaction. […] When the fold change of every tile on the protein amino acid positions was mapped, functional regions of the protein affecting cell growth were identified. For example, on RAF1, peaks corresponding to the Ras-binding domain (RBD) were identified, and the kinase domain (FIG. 8A). […] In addition, a region of MYC that affect cell growth was identified and mapped on the DNA binding domain bHLH (FIG. 8). […] To validate the results from the screen, A375-WT and -NRAS^Q61K were transduced with GFP_147, or RAF1_78, MYC_384, or KIT_499, or SOS_120 tiles and cell growth measured using CCK8 assay
48 hours after plating (FIG. 9A). […] The CR2 domain of BRAF contain a 14-3-3 binding site and play a role in BRAF-MEK autoinhibitory complex which regulates MAPK pathway activation. One of the goals of this contextual PepTile screen was to identify peptides that would impair growth of NRAS cell line but not the parental, to address overall NRAS-driven drug resistance. For instance, more than 6000 peptide hits were detected that are exclusive to A375-NRAS^Q61K (FIG. 6). For example, ARHGAP20 and ARHGAP26 show a very different PepTile profiles between A375-NRAS^Q61K and A375-WT (FIG. 11) and seem to have more of an effect in the A375-NRAS^Q61K condition. Altogether, the Pan-Cancer PepTile screen show the potential of finding new potential peptides to target NRAS melanoma, as well as mapping protein domains involved in cellular growth in a given context.

[3] = system: SOX17 transcriptional program (PRANMOOJAGO_SOX4); experiment: RNA-sequencing GSEA of A375 expressing SOX17_96 versus GFP_147; settings: 5 days post-transduction
Experimental: as §4

Substance: SOX17_17: 40-mer peptide tile of SOX17, AA start position 96, HMG box
- A375-WT Fitness Score (A375-WT [1]): −4.49
- A375-NRAS Fitness Score (A375-NRAS^Q61K): −0.77
- cell growth compared to GFP_147 (A375-WT [2]): cell growth defect
- GSEA of SOX17 transcriptional program [3]: downregulation of their respective transcriptional programs
